Results on four molecules are retold here after US11130132B2, “Microfluidic neutrophil assays and systems for disease detection” (The General Hospital Corporation, priority 2016, dated 2021).

This experiment relates to neutrophils in whole blood. Briefly: blood-spiking with immune-modulators: spontaneous neutrophil motility in whole blood in the microfluidic device. It is filed as cell-based, human. Conditions: 37° C. 30 min before loading. How it is done:
Prior to the addition of a blood sample, devices were primed with IMDM containing 10% FBS and 1% Fibronectin (from human plasma, Sigma) by pipetting 50 μl into the sample loading chamber and around each device, such that a dome of liquid formed on top, and the outer edge of the device in contact with the coverslip was surrounded. The devices were placed under a vacuum for at least 10 minutes, and then removed and allowed to re-pressurize and equilibrate for at least 15 minutes to remove bubbles.
Whole blood samples to be loaded in the device were diluted 1:1 in IMDM with 20% FBS and stained with Hoechst 33342 dye at 32 μM for 15 minutes prior to loading. A small droplet of 0.5 μL of stained blood was then pipetted into the center of the device using a gel-loading tip. The blood droplet is pipetted into the central chamber and time-lapse imaging of the mazes was then used to measure neutrophil behavior over a period of 4 hours.
Cell motility was imaged at 10× magnification using a fully automated fluorescent Nikon TiE inverted wide field microscope with a biochamber heated to 37° C. with 5% CO2. Each microfluidic device included 8 imaging fields, each containing one […]. Each field was imaged every 2 minutes over the course of 4 hours to allow accurate tracking of cell motility.
Automated cell tracking was performed using ImageCV, TrackPy, and SciKit-Learn packages in Python. Files were converted to standard AVI format using Nikon Elements or ImageJ. Initial processing was performed to allow brightfield tracking and included removing the background. Cell tracking was performed automatically from brightfield images for most of the time-lapse sequences. Cells were tracked by size, velocity, and directionality. These tracks were written to individual CSV files for each imaging field. The specific variables for each track included: track number, video frame, cell diameter, x position, y position, distance, and velocity. Cell motility pattern identification and definitions are detailed in Table 2. Figures were prepared using Illustrator CS5 Version 15.0.0 (Adobe Systems).
For plasma-swapping experiments, 1 mL of whole blood was centrifuged at 200 g for 10 minutes to pellet cells. The platelet-rich plasma supernatants were then drawn from the tubes and transferred into fresh tubes. Platelets were then pelleted at 1900 g for 10 minutes and the plasma fraction drawn into fresh tubes. Cell pellets were then re-suspended in the appropriate exchanged plasma and an aliquot loaded into the device. For blood-spiking experiments, immune-modulators were added to the media at 2× the target dose prior to mixing 1:1 with whole blood. Once mixed, spiked blood samples were incubated at 37° C. for 30 min prior to loading.

[1] abbreviates: whole blood spiked at 0.1 ng/mL.
The mark [2] stands for this setting: whole blood spiked at 1.0 ng/mL.
Setting [3] is: whole blood spiked at 0.5 ng/mL.
[4] abbreviates: whole blood spiked at 1.8 ng/mL.
Setting [5] is: whole blood spiked at 0.3 ng/mL.

On to “IL1-β: immune-modulator previously reported to be elevated in septic blood, spiked into whole blood”, for which, under setting [1], the “Oscillations (O)” value came to 1.4 ± 1.5, the Pausing was 2.4 ± 2.8 and the “Spontaneously migrating cells (N)” value worked out at 3.8 ± 3.2. Under setting [2], the “Oscillations (O)” value is reported as 1.0, the Pausing stood at 1.0 and the “Spontaneously migrating cells (N)” value is reported as 0.3 ± 0.1.

In the case of TNF-α, under setting [1], the “Oscillations (O)” value was determined as 1.7 ± 3.4, the Pausing was 4.8 ± 8.8 and the “Spontaneously migrating cells (N)” value turned out to be 7.2 ± 13.9. Besides, under setting [3], the “Oscillations (O)” value is reported as 1.3 ± 1.2, the Pausing is reported as 15.7 ± 14.2 and the “Spontaneously migrating cells (N)” value came out at 25.3 ± 26.1. Under setting [2], the “Oscillations (O)” value turned out to be 0.7 ± 1.2, the Pausing is on record as 1.3 ± 0.6 and the “Spontaneously migrating cells (N)” value came to 2.7 ± 1.2.

B1: IFN-γ: immune-modulator previously reported to be elevated in septic blood, spiked into whole blood (protein, UniProt P01579 24-161, looked up)
Interferon gamma: QDPYVKEAENLKKYFNAGHSDVADNGTLFLGILKNWKEESDRKIMQSQIVSFYFKLFKNFKDDQSIQKSVETIKEDMNVKFFNSNKKKRDDFEKLTNYSVTDLNVQRKAIHELIQVMAELSPAAKTGKRKRSQMLFRG
Regarding B1, under setting [4], the “Oscillations (O)” value stood at 4.8 ± 6.3, the Pausing is given as 7.0 ± 6.9 and the “Spontaneously migrating cells (N)” value is reported as 10.8 ± 12.4. In addition, the “Spontaneously migrating cells (N)” value (whole blood spiked at 2.5 ng/mL) is listed as 0 ± 0.0.

B2: G-SCF: immune-modulator previously reported to be elevated in septic blood, spiked into whole blood (protein, UniProt P09919 31-207, looked up)
Granulocyte …: TPLGPASSLPQSFLLKCLEQVRKIQGDGAALQEKLVSECATYKLCHPEELVLLGHSLGIPWAPLSSCPSQALQLAGCLSQLHSGLFLYQGLLQALEGISPELGPTLDTLQLDVADFATTIWQQMEELGMAPALQPTQGAMPAFASAFQRRAGGVLVASHLQSFLEVSYRVLRHLAQP
On to B2, for which, under setting [5], the “Oscillations (O)” value came out at 4.2 ± 9.7, the Pausing stood at 4.7 ± 9.6 and the “Spontaneously migrating cells (N)” value amounted to 6.7 ± 13.6. Under setting [3], the “Oscillations (O)” value was found to be 0.3 ± 0.6, the Pausing was found to be 2.0 ± 1.7 and the “Spontaneously migrating cells (N)” value was 2.3 ± 2.3.
